# Data reported in the supplement of paper PMC10307832.
# Compound: CCCS(=O)(=O)Nc1ccc(F)c(C(=O)c2c[nH]c3ncc(-c4ccc(Cl)cc4)cc23)c1F [Vemurafenib] + C[C@@H](Oc1cc(-c2cnn(C3CCNCC3)c2)cnc1N)c1c(Cl)ccc(F)c1Cl [Crizotinib] (partner 1 µM)
# Assay: relative viability (nuclei count vs DMSO), 5 days (fraction); higher = more cells survive
# Settings: first compound 0.03162 µM
# How it was run: (§1)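 The day after seeding in 1536-well plates, lung cancer cell lines were treated by pin tool with a single drug, or with a fixed anchor-drug dose together with five library-drug doses (not always all listed) in √10 steps. After 5 days, a combined fix-and-stain solution (final 0.05% Triton X-100, 1% formaldehyde, 1 ug/ml Hoechst) was added. Nuclei counted on 4× images gave relative viability as treated counts over vehicle counts, reported as the median of duplicate plates.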
row,Cell Line,relative viability
1,NCI-H2126,1.02
2,EPLC-272H,0.822
3,NCI-H1755,0.798
4,NCI-H2023,0.534
5,NCI-H1650,0.922
6,NCI-H1299,0.951
7,HCC-44,0.749
8,NCI-H1703,0.605
9,HCC-366,0.465
10,Calu-6,0.595
11,NCI-H1563,0.825
12,NCI-H1792,0.905
13,EBC-1,0.188
14,A549,0.704
15,IA-LM,0.694
16,HCC-78,0.315

# Same assay, conditions: first compound 0.1 µM
row,Cell Line,relative viability
1,NCI-H2126,1.04
2,EPLC-272H,0.809
3,NCI-H1755,0.842
4,NCI-H2023,0.452
5,NCI-H1299,0.929
6,HCC-44,0.867
7,NCI-H1703,0.449
8,HCC-366,0.468
9,Calu-6,0.808
10,NCI-H1563,0.744
11,NCI-H1792,0.913
12,EBC-1,0.19
13,A549,0.717
14,IA-LM,0.916
15,HCC-78,0.277

# Same assay, conditions: first compound 0.3162 µM
row,Cell Line,relative viability
1,NCI-H2126,1.02
2,EPLC-272H,0.89
3,NCI-H1755,0.844
4,NCI-H2023,0.704
5,NCI-H1650,1.08
6,NCI-H1299,0.9
7,HCC-44,0.809
8,NCI-H1703,0.453
9,Calu-6,0.783
10,NCI-H1563,0.823
11,NCI-H1792,0.806
12,EBC-1,0.197
13,A549,0.743
14,IA-LM,1.1
15,HCC-78,0.376

# Same assay, conditions: first compound 1 µM
row,Cell Line,relative viability
1,NCI-H2126,1.04
2,EPLC-272H,0.841
3,NCI-H1755,0.79
4,NCI-H2023,0.675
5,NCI-H1650,1.01
6,NCI-H1299,0.94
7,HCC-44,0.813
8,NCI-H1703,0.593
9,HCC-366,0.412
10,Calu-6,0.668
11,NCI-H1563,0.852
12,NCI-H1792,1
13,EBC-1,0.182
14,A549,0.717
15,IA-LM,0.422
16,HCC-78,0.333

# Compound: COc1cccc2cc(-c3nc([C@H]4CC[C@H](C(=O)O)CC4)n4ncnc(N)c34)[nH]c12 [OSI-027] + Cc1nc(Nc2ncc(C(=O)Nc3c(C)cccc3Cl)s2)cc(N2CCN(CCO)CC2)n1 [Dasatinib] (partner 0.075 µM)
# Assay: as above
# Settings: first compound 0.01 µM
# How it was run: as §1
row,Cell Line,relative viability
1,NCI-H2126,0.562
2,EPLC-272H,0.336
3,NCI-H1755,0.392
4,NCI-H2023,0.588
5,NCI-H1623,0.52
6,NCI-H1650,0.313
7,NCI-H1793,0.352
8,NCI-H2342,0.316
9,HCC-366,0.679
10,NCI-H522,0.963
11,NCI-H1563,0.444
12,NCI-H1792,0.664
13,NCI-H1395,0.385
14,HCC-78,0.329

# Same assay, conditions: first compound 0.03162 µM
row,Cell Line,relative viability
1,NCI-H2126,0.56
2,EPLC-272H,0.314
3,NCI-H1755,0.458
4,NCI-H2023,0.621
5,NCI-H1623,0.607
6,NCI-H1650,0.347
7,NCI-H1793,0.391
8,NCI-H2342,0.278
9,HCC-366,0.708
10,NCI-H522,0.944
11,NCI-H1563,0.467
12,NCI-H1792,0.617
13,NCI-H1395,0.398
14,SW 900,0.6
15,HCC-78,0.356

# Same assay, conditions: first compound 0.1 µM
row,Cell Line,relative viability
1,NCI-H2126,0.504
2,EPLC-272H,0.36
3,NCI-H1755,0.39
4,NCI-H2023,0.505
5,NCI-H1623,0.455
6,NCI-H1650,0.255
7,NCI-H1793,0.389
8,NCI-H2342,0.314
9,HCC-366,0.61
10,NCI-H522,0.723
11,NCI-H1563,0.447
12,NCI-H1792,0.818
13,NCI-H1395,0.373
14,SW 900,0.641
15,HCC-78,0.3

# Same assay, conditions: first compound 0.3162 µM
row,Cell Line,relative viability
1,NCI-H2126,0.374
2,EPLC-272H,0.268
3,NCI-H1755,0.42
4,NCI-H2023,0.338
5,NCI-H1623,0.365
6,NCI-H1650,0.279
7,NCI-H1793,0.279
8,NCI-H2342,0.296
9,HCC-366,0.477
10,NCI-H522,0.629
11,NCI-H1563,0.457
12,NCI-H1792,0.7
13,NCI-H1395,0.341
14,SW 900,0.487
15,HCC-78,0.266

# Same assay, conditions: first compound 1 µM
row,Cell Line,relative viability
1,NCI-H2126,0.45
2,EPLC-272H,0.102
3,NCI-H1755,0.229
4,NCI-H2023,0.192
5,NCI-H1623,0.275
6,NCI-H1650,0.229
7,NCI-H1793,0.193
8,NCI-H2342,0.316
9,HCC-366,0.395
10,NCI-H522,0.736
11,NCI-H1563,0.454
12,NCI-H1792,0.211
13,NCI-H1395,0.343
14,SW 900,0.288
15,HCC-78,0.325

# Compound: Cc1nc(NC(=O)N2CCC[C@H]2C(N)=O)sc1-c1ccnc(C(C)(C)C(F)(F)F)c1 [Alpelisib] + CCNC(=O)c1noc(-c2cc(C(C)C)c(O)cc2O)c1-c1ccc(CN2CCOCC2)cc1 [Luminespib] (partner 0.01 µM)
# Assay: as above
# Settings: first compound 0.04 µM
# How it was run: as §1
row,Cell Line,relative viability
1,NCI-H2126,0.946
2,EPLC-272H,0.74
3,NCI-H1755,0.352
4,NCI-H2023,0.644
5,NCI-H1623,0.487
6,NCI-H1650,0.208
7,NCI-H1793,0.194
8,NCI-H2342,0.762
9,HCC-44,1.11
10,NCI-H522,1.09
11,NCI-H1563,0.488
12,NCI-H1792,0.338
13,NCI-H1395,0.568
14,SW 900,0.163

# Same assay, conditions: first compound 0.1265 µM
row,Cell Line,relative viability
1,NCI-H2126,0.848
2,EPLC-272H,0.253
3,NCI-H1755,0.415
4,NCI-H2023,0.606
5,NCI-H1623,0.374
6,NCI-H1650,0.192
7,NCI-H1793,0.177
8,NCI-H2342,0.696
9,HCC-44,1.08
10,NCI-H522,1.21
11,NCI-H1563,0.479
12,NCI-H1792,0.5
13,NCI-H1395,0.663
14,SW 900,0.168

# Same assay, conditions: first compound 0.4 µM
row,Cell Line,relative viability
1,NCI-H2126,0.854
2,EPLC-272H,0.155
3,NCI-H1755,0.418
4,NCI-H2023,0.679
5,NCI-H1623,0.477
6,NCI-H1650,0.24
7,NCI-H1793,0.154
8,NCI-H2342,0.686
9,HCC-44,1.2
10,NCI-H522,1.13
11,NCI-H1563,0.404
12,NCI-H1792,0.576
13,NCI-H1395,0.755
14,SW 900,0.177

# Same assay, conditions: first compound 1.265 µM
row,Cell Line,relative viability
1,NCI-H2126,0.776
2,EPLC-272H,0.19
3,NCI-H1755,0.42
4,NCI-H2023,0.505
5,NCI-H1623,0.385
6,NCI-H1650,0.19
7,NCI-H1793,0.165
8,NCI-H2342,0.568
9,HCC-44,0.614
10,NCI-H522,0.881
11,NCI-H1563,0.503
12,NCI-H1792,0.326
13,NCI-H1395,0.604
14,SW 900,0.138

# Same assay, conditions: first compound 4 µM
row,Cell Line,relative viability
1,NCI-H2126,0.667
2,EPLC-272H,0.164
3,NCI-H1755,0.395
4,NCI-H2023,0.4
5,NCI-H1623,0.417
6,NCI-H1650,0.18
7,NCI-H1793,0.179
8,NCI-H2342,0.488
9,HCC-44,0.84
10,NCI-H522,0.981
11,NCI-H1563,0.462
12,NCI-H1792,0.323
13,NCI-H1395,0.724
14,SW 900,0.173

# Compound: Cc1nc(NC(=O)N2CCC[C@H]2C(N)=O)sc1-c1ccnc(C(C)(C)C(F)(F)F)c1 [Alpelisib] + Cc1cc(Nc2cc(N3CCN(C)CC3)nc(Sc3ccc(NC(=O)C4CC4)cc3)n2)n[nH]1 [Tozasertib] (partner 0.1 µM)
# Assay: as above
# Settings: first compound 0.04 µM
# How it was run: as §1
row,Cell Line,relative viability
1,NCI-H2126,0.879
2,EPLC-272H,0.256
3,NCI-H1755,0.615
4,NCI-H2023,0.36
5,NCI-H1623,0.446
6,NCI-H1650,0.464
7,NCI-H1793,0.275
8,NCI-H2342,0.419
9,HCC-44,0.883
10,HCC-366,0.151
11,NCI-H522,0.519
12,NCI-H1395,0.823
13,SW 900,0.734
14,HCC-78,0.411

# Same assay, conditions: first compound 0.1265 µM
row,Cell Line,relative viability
1,NCI-H2126,0.826
2,EPLC-272H,0.326
3,NCI-H1755,0.508
4,NCI-H2023,0.35
5,NCI-H1623,0.338
6,NCI-H1650,0.287
7,NCI-H1793,0.383
8,NCI-H2342,0.473
9,HCC-44,0.935
10,NCI-H1648,0.68
11,HCC-366,0.117
12,NCI-H522,0.558
13,NCI-H1395,0.695
14,SW 900,0.5
15,HCC-78,0.318

# Same assay, conditions: first compound 0.4 µM
row,Cell Line,relative viability
1,NCI-H2126,0.809
2,EPLC-272H,0.513
3,NCI-H1755,0.629
4,NCI-H2023,0.348
5,NCI-H1623,0.388
6,NCI-H1650,0.375
7,NCI-H1793,0.312
8,NCI-H2342,0.389
9,HCC-44,1.11
10,NCI-H1648,0.607
11,HCC-366,0.13
12,NCI-H522,0.527
13,NCI-H1395,0.743
14,SW 900,0.88
15,HCC-78,0.504

# Same assay, conditions: first compound 1.265 µM
row,Cell Line,relative viability
1,NCI-H2126,0.627
2,EPLC-272H,0.203
3,NCI-H1755,0.438
4,NCI-H2023,0.215
5,NCI-H1623,0.347
6,NCI-H1650,0.332
7,NCI-H1793,0.169
8,NCI-H2342,0.401
9,HCC-44,0.376
10,NCI-H1648,0.27
11,HCC-366,0.0701
12,NCI-H522,0.47
13,NCI-H1395,0.616
14,SW 900,0.571
15,HCC-78,0.401

# Same assay, conditions: first compound 4 µM
row,Cell Line,relative viability
1,NCI-H2126,0.584
2,EPLC-272H,0.173
3,NCI-H1755,0.434
4,NCI-H2023,0.166
5,NCI-H1623,0.29
6,NCI-H1650,0.36
7,NCI-H1793,0.188
8,NCI-H2342,0.367
9,HCC-44,0.607
10,NCI-H1648,0.22
11,HCC-366,0.0516
12,NCI-H522,0.37
13,NCI-H1395,0.735
14,SW 900,0.358
15,HCC-78,0.292
